Patent US10941114B2, “Small molecule lipid II inhibitors” (University Of Maryland, Baltimore, priority 2015, dated 2021)
Structures can show the parent of a compound that is named as a salt. Where two headings read alike, the source gives them in different places.

Tests used:
Staphylococcus aureus = assay: Antibacterial activity assay (MIC, broth dilution); format: cell-based; design: S. aureus Killing / Bacterial Killing S. aureus: unit not given here
Enterococcus faecium = assay: Antibacterial activity assay (MIC, broth dilution); format: cell-based; design: Bacterial Killing E. faecium: unit: ug/mL; conditions: for MIC: Enterococcus faecium
Summary of the method: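 Broth dilution MIC per CLSI (M07-A10) in cation-adjusted Mueller Hinton broth with 10% brain-heart infusion; MIC is the lowest concentration preventing visible growth, in μg/mL. Some compounds were run by broth microdilution.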

[1] = in vivo
CYP2D6 = CYP2D6 (Homo sapiens, UniProt P10635); assay: P450 enzyme inhibition (IC50 fluorescence); format: in vitro ADME; conditions: substrate AMMC
Chain of CYP2D6 (P10635 whole entry): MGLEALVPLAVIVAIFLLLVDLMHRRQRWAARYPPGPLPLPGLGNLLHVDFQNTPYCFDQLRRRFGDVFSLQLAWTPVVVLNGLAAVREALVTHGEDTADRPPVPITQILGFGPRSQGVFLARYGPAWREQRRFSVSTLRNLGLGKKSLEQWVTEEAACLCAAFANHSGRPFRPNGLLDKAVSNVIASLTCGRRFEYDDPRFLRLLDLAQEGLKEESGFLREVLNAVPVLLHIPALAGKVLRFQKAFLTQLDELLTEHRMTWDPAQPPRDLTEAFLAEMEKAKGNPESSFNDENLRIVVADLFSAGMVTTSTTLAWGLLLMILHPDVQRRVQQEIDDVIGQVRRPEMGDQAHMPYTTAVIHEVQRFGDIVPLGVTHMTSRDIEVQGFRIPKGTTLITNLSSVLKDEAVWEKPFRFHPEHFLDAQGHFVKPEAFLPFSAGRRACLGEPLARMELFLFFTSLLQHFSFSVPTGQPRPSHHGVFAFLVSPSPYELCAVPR

in vivo = conditions: male, iv, […]
[2] = Pharmacokinetic study in mice (plasma concentration by LC/MS/MS)
Escherichia coli = assay: Antibacterial activity assay (MIC, broth dilution); format: cell-based
[3] = Plasma / serum stability (LC/MS/MS); format: in vitro ADME; conditions: 10 μg/mL, 50% serum
HeLa cells = assay: Cytotoxicity testing (CC50, MTS assay)
Enterococcus faecalis = assay: Antibacterial activity assay (MIC, broth dilution); format: cell-based; conditions: for MIC: Enterococcus faecalis
CYP2C19 = CYP2C19 (Homo sapiens, UniProt P33261); assay: P450 enzyme inhibition (IC50 fluorescence); format: in vitro ADME; conditions: substrate CEC: 3-cyano-7-ethoxycoumarin
Chain of CYP2C19 (P33261 whole entry): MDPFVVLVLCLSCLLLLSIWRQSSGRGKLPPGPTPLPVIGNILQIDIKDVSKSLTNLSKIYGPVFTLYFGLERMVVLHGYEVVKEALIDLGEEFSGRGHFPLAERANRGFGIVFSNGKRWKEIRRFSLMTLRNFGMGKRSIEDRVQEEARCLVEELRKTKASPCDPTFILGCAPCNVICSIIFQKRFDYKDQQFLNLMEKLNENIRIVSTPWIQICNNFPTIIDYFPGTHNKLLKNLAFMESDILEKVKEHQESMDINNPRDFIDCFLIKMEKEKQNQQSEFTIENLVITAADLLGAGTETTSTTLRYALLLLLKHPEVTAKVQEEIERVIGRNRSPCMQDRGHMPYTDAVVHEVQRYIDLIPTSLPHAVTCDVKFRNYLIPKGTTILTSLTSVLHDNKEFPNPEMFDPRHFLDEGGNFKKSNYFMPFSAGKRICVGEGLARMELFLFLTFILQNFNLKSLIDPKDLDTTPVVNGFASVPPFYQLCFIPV

CYP3A4 = CYP3A4 (Homo sapiens, UniProt P08684); assay: P450 enzyme inhibition (IC50 fluorescence); format: in vitro ADME
Chain of CYP3A4 (P08684 whole entry): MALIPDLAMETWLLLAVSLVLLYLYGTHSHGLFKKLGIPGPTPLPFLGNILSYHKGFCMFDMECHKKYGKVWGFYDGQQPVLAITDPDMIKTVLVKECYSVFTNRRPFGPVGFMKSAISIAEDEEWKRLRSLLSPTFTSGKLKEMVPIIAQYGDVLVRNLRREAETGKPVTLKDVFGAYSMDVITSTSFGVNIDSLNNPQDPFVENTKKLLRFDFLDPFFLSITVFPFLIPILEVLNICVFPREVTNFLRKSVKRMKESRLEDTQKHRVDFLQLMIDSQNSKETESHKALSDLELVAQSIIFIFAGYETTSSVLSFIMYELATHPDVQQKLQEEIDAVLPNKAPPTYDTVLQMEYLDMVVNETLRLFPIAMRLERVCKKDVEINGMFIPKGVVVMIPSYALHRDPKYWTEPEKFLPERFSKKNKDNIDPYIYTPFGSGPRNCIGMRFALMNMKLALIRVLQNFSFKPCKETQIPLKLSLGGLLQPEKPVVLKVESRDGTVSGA

[4] = Maximum Tolerated Dose (MTD) and in vivo toxicity at the MTD; conditions: mouse, in vivo, ip
Bacillus anthracis = format: cell-based
Burkholderia mallei = format: cell-based; conditions: 23344; according to DOD guidelines
[5] = In vivo efficacy of BAS00127538 (bacteria in spleen and blood); conditions: samples collected at 50 hours post-infection from treated animals
Protocol: To determine the efficacy of […] in vivo, samples were collected from vehicle-treated animals at 20 hours or at 50 hours post-infection from vancomycin- and BAS-treated animals.

Pseudomonas aeruginosa = assay: Antibacterial activity assay (MIC, broth dilution); format: cell-based; conditions: MMX#-ATCC# 103-27853
Yersinia pestis = format: cell-based; conditions: CO92; according to DOD guidelines
Streptococcus pneumoniae = assay: Antibacterial activity assay (MIC, broth dilution); format: cell-based
[6] = test system: Burkholderia pseudomallei; format: cell-based; conditions: K96243; according to DOD guidelines
[7] = determined as in Example 1E (MIC)
[8] = cation-adjusted Mueller Hinton broth, 10% BHI, read-out: MIC E. faecium C110914
[9] = cation-adjusted Mueller Hinton broth, 10% BHI, read-out: MIC E. faecium IH79985
[10] = cation-adjusted Mueller Hinton broth, 10% BHI, read-out: MIC E. faecium S1559
[11] = IV administration, single dose […], mice (n=3)
[12] = PO administration, single oral dose 5 mg/kg, mice (n=3)
[13] = comparator values repeated from Table 4 (IV, […])
[14] = cation-adjusted Mueller Hinton broth, 10% BHI, read-out: MIC E. faecalis 51299
[15] = cation-adjusted Mueller Hinton broth, 10% BHI, read-out: MIC E. faecalis 51575
[16] = cation-adjusted Mueller Hinton broth, 10% BHI, read-out: MIC E. faecalis C99707

CN(C)c1ccc(/C=C/c2cc(-c3ccc(Br)cc3)cc(-c3ccc(Br)cc3)[o+]2)cc1 [Compound 6jc48-1, (E)-2,4-bis(4-bromophenyl)-6-(4-(dimethylamino)styryl)pyrylium boron tetrafluoride salt]
Bacterial Killing S. aureus (Staphylococcus aureus; [7]): 16 | MIC (Enterococcus faecium; [8]): 4 µg/mL | MIC (Enterococcus faecium; [9]): 8 µg/mL | MIC (Enterococcus faecium; [10]): 2 µg/mL | MIC (Enterococcus faecium; clinical isolates sensitive to linezolid and daptomycin, n = 5, read-out: MIC E. faecium* clinical isolates): 4 to 16 µg/mL | Bacterial Killing E. faecium (Enterococcus faecium; [7]): 4 | AUCextrap ([1]; CD1, mouse, po, 5 mg/kg): 48.6% | Vss_obs ([1]; CD1, mouse, po, 5 mg/kg): 1.75 L/kg | Volume of distribution at equilibrium (Vs) ([1]; male, CD1, mouse, iv, […]): 22.8 | Vss_obs ([1]; male, CD1, mouse, iv, […]): 22.8 ± 2.9 L/kg | IC50 (CYP2D6): > 10 µM | Vd (in vivo; CD1, mouse, plasma): ~23 L/kg | Vd (in vivo; mouse, in vivo): 22.8 ± 2.9 L/kg | AUClast/D [2, 11]: 536 ± 47 mg·h/mL | Cl_obs [2, 11]: 23.6 ± 1.7 mL/min/kg | T1/2 [2, 11]: 798 ± 108 min | AUCInf [2, 12]: 90 ng·h/mL | AUClast [2, 12]: 46.9 ng·h/mL | Cmax [2, 12]: 19.1 ng/mL | Finf (inferred bioavailability) [2, 12]: 2.54% | Flast (bioavailability at last time point) [2, 12]: 1.9% | T1/2 [2, 12]: 167 min | Cl—obs [2, 13]: 23.6 ± 1.7 mL/min/kg | T1/2 [2, 13]: 798 ± 108 min | Bacterial Killing E. coli (Escherichia coli; [7]): >64 | stability in serum ([3]; after 2 hours): stable after 2 hours in serum | compound remaining ([3]; after 19 hours): 46% | reduction in cytotoxicity compared to the parent BAS00127538 (HeLa cells): 50 fold | MIC (Enterococcus faecalis; MIC quoted with the macromolecular synthesis data (FIG. 11), strain not given, MMS run on E. faecalis EF1509, read-out: MIC): 4 µg/mL | MIC (Enterococcus faecalis; [14]): 4 µg/mL | MIC (Enterococcus faecalis; [15]): 2 µg/mL | MIC (Enterococcus faecalis; [16]): 2 µg/mL | MIC (Enterococcus faecalis; clinical isolates sensitive to linezolid and daptomycin, n = 5, read-out: MIC E. faecalis* clinical isolates): 4 to 16 µg/mL | IC50 (CYP2C19): > 10 µM | IC50 (CYP3A4; substrate BFC: 7-benzoyloxy-4-triflluoromethyl coumarin, read-out: P450 enzyme inhibition (IC50 fluorescence) CYP3A4/BFC): 1.3 µM | IC50 (CYP3A4; substrate DBF: dibenzylfluorescein, read-out: P450 enzyme inhibition (IC50 fluorescence) CYP3A4/DBF): > 10 µM | MTD [4]: ≤ 100 mg/kg

CN1/C(=C/C=C/c2cc(-c3ccccc3)cc(-c3ccccc3)[o+]2)C(C)(C)c2ccccc21 [BAS00127538, 1-methyl-2,4-diphenyl-6-((1E,3E)-3-(1,3,3-trimethylindolin-2-ylidene)pro-p-1-en-1yl)pyryl-1-ium) tetrafluoroborate]
MIC Staphylococcus aureus (Staphylococcus aureus; MMX#-ATCC# 100-29213): 0.5 µg/mL | MIC (Enterococcus faecium; [8]): 2 µg/mL | MIC (Enterococcus faecium; [9]): 2 µg/mL | MIC (Enterococcus faecium; [10]): 2 µg/mL | MIC Bacillus anthracis (spores)* (Bacillus anthracis; Ames, spores, according to DOD guidelines): 0.5 µg/mL | MIC Bacillus anthracis* (Bacillus anthracis; Ames, according to DOD guidelines): 0.5 µg/mL | MIC Bacillus anthracis Sterne (Bacillus anthracis; MMX#-ATCC# 109-NA): 0.5 µg/mL | detection in plasma ([1]; mouse, po, 5 mg/kg): could not be detected | MIC Burkholderia mallei* (Burkholderia mallei): > 64 µg/mL | survival of treated animals [5]: One animal treated with BAS did not survive beyond 28 hours | half-life (in vivo; CD1, mouse, plasma): 13.2 min | MIC Pseudomonas aeruginosa (Pseudomonas aeruginosa): > 8 µg/mL | Cl_obs [2, 11]: 711 mL/min/kg | T1/2 [2, 11]: 13.6 min | Vss_obs [2, 11]: 12.2 L/kg | T1/2 [2, 13]: 13.6 min | AUClast/D ([2]; comparator values repeated from Table 4 (IV, […]), AUClast/D): 2.69e-05 mg·h/mL | volume of distribution ([2]; intravenous administration, single dose […], mice): 12.2 L/kg | MIC Escherichia coli (Escherichia coli; MMX#-ATCC# 102.25922): 4 µg/mL | MIC Yersinia pestis* (Yersinia pestis): 8 µg/mL | MIC Streptococcus pneumoniae (PRSP) (Streptococcus pneumoniae; MMX#-ATCC# 884-NA, penicillin-resistant): 8 µg/mL | MIC Streptococcus pneumoniae (Streptococcus pneumoniae; MMX#-ATCC# 1195-49619): 8 µg/mL | MIC Burkholderia pseudomallei* [6]: 64 µg/mL | MIC (Enterococcus faecalis; [14]): 2 µg/mL | MIC (Enterococcus faecalis; [15]): 2 µg/mL | MIC (Enterococcus faecalis; [16]): 2 µg/mL | MIC Enterococcus faecalis (Enterococcus faecalis; MMX#-ATCC# 101-29212): 1 µg/mL | MIC Enterococcus faecalis (VRE) (Enterococcus faecalis; MMX#-ATCC# 848-NA, vancomycin-resistant): 1 µg/mL
